Reference: publication PMC10382042, “Brevetoxin versus Brevenal Modulation of Human Nav1 Channels” (Marine Drugs, 2023)
pEC50: −log10 of the molar value. Values joined by “and” are separate entries in the source; they are usually repeats but may differ in a detail not shown here. Equal values may be shown once. Read-outs that look alike come from different tables or passages of the source.

Legend:
Format in all cases: cell-based
human Nav1.4 = human Nav1.4 (Homo sapiens, UniProt P35499); assay: Automated patch-clamp I-V relationship (voltage dependence of activation, Gmax), Nav1.4
Protocol: (§1) The voltage dependence of recombinant Nav channel-mediated currents exposed to PbTx-3 and brevenal was evaluated using current–voltage (I-V) relationships built for Ipeak and Ilate elicited by a standard stimulation protocol (25 ms, −100 to +60 mV, Vh −120 mV, 0.1 Hz).
[…] […] To investigate the possibility of overlapping binding of these compounds within Nav channels, Nav whole-cell currents were recorded using an intracellular solution supplemented with brevenal (Brevenali = 1 μM). After equilibration, extracellular PbTx-3o (1 μM) was applied and its modulatory effects over the current kinetics and voltage dependence of activation were compared.
(§2) Figure 4 and Figure 5 display representative current traces mediated by human recombinant Nav channels in control and upon exposure to PbTx-3 and brevenal. I-V plots from the normalized peak and late (when present) currents amplitudes (Ipeak/Ipeak^max and Ilate/Ipeak^max) were fitted to a Boltzmann function rendering the half-maximal activation potential (V0.5) and normalized macroscopic conductance (Gmax) parameters (see Section 4). The changes in V0.5 (ΔV0.5 = V0.5^Comp − V0.5^Ctr) and relative Gmax (Gmax^Rel = Gmax^Comp/Gmax^Ctr) observed in the presence of PbTx-3 and brevenal and control conditions were then calculated and compared for all assayed conditions.
(§3) Recording solutions: The extracellular solution contained (in mM) 140 NaCl, 5 KCl, 2 CaCl2, 2 MgCl2, 10 glucose, and 10 HEPES (pH 7.4 with NaOH, 298 ± 3 mOsmol/k g). Control intracellular solution (in mM): 60 CsF, 70 CsCl, 10 EGTA, 10 glucose, and 10 HEPES (pH 7.2 with CsOH, 285 ± 3 mOsmol/kg). Intracellular exposure to brevenal (1 μM) was achieved by including it in the control intracellular solution during chip filling.
(§4) Electrophysiology: Automated patch-clamp (APC) recordings were performed in a PatchLiner Octo (Nanion Technologies GmbH, Munich, Germany) equipped with two EPC-10 quadro patch-clamp amplifiers (HEKA Electronik, Lambrecht/Pfalz, Germany). PatchControl HT (Nanion) was used for cell capture, seal formation, and establishment of the whole-cell configuration, whilst voltage was controlled and currents were sampled with PatchMaster (HEKA Electronics). Recordings were performed under the whole-cell configuration using single-hole planar medium resistance NPC-16 chips (Rchip, resistance of ~2.5 MΩ) at room temperature (22–24 °C).
(§5) Peak I–V curves were fitted using:I(V) = (V − Vrev) × Gmax/(1 + exp ((V0.5 − V)/Vslope) where I is the macroscopic current, V is the command potential, Vrev is the reversal potential (mV), Gmax is the maximal conductance, V0.5 is the half-activation potential (mV), and Vslope is the slope factor (mV/e-fold).

human Nav1.2 [1] = biological target: T1, human Nav1.2 (Homo sapiens, UniProt Q99250); assay: Automated patch-clamp I-V relationship (voltage dependence of activation, Gmax), Nav1.2
T1 sequence (Q99250 whole entry): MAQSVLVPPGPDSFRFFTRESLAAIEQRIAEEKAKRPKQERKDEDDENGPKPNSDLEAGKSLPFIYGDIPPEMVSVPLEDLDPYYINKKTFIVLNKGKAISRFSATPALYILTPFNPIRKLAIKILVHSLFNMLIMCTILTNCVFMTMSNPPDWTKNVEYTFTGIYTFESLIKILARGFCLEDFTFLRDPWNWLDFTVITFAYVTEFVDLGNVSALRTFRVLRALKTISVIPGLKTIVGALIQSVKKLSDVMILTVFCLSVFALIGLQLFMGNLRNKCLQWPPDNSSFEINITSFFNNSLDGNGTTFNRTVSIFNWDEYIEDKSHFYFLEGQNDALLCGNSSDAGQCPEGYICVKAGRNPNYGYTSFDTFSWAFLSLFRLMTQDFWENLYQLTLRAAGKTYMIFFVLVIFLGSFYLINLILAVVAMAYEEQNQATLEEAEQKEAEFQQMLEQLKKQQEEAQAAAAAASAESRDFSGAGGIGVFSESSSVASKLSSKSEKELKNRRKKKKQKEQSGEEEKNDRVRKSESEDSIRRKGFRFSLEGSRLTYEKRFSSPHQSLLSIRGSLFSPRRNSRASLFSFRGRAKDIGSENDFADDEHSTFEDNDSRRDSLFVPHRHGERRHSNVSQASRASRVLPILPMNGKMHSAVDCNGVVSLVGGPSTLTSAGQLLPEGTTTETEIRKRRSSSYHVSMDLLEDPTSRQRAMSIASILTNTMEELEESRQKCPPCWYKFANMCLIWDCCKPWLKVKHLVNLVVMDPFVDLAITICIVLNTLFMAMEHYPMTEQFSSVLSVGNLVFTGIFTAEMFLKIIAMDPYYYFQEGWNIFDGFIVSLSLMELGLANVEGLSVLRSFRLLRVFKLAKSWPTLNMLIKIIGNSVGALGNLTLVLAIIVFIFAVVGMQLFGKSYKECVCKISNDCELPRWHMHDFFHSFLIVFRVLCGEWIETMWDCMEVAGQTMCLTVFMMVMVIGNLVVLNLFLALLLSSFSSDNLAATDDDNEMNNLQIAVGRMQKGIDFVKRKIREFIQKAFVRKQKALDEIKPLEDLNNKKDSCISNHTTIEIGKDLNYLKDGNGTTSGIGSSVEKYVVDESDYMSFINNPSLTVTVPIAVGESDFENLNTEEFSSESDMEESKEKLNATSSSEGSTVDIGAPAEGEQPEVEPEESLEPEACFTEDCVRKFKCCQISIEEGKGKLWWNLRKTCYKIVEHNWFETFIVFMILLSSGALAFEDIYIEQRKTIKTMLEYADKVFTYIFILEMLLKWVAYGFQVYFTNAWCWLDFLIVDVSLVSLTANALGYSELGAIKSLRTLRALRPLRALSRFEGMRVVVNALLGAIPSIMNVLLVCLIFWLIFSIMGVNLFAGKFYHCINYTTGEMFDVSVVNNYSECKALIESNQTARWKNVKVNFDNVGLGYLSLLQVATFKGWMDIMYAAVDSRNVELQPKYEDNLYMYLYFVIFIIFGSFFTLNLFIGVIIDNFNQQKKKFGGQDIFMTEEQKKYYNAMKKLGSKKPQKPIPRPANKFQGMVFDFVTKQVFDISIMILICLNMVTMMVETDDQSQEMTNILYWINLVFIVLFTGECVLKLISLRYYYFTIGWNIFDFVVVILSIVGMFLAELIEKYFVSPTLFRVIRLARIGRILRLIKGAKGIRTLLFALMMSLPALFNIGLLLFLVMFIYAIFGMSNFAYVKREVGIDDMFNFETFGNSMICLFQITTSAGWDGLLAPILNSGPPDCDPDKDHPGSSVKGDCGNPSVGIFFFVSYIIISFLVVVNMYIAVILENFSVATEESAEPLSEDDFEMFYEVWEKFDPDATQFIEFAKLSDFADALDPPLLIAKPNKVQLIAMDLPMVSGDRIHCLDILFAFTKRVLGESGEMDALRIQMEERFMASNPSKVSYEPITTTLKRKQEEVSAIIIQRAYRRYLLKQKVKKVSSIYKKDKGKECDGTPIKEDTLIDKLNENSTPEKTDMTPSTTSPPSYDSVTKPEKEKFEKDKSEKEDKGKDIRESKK
Protocol: as §1
(§6) The effects of extracellular exposure to PbTx-3 (PbTx-3o = 1 μM) and brevenal (Brevenalo = 10 μM) on the activation of Nav channels in neuronal and muscle cells were examined under normal intracellular ionic conditions. […] To investigate the possibility of overlapping binding of these compounds within Nav channels, Nav whole-cell currents were recorded using an intracellular solution supplemented with brevenal (Brevenali = 1 μM). After equilibration, extracellular PbTx-3o (1 μM) was applied and its modulatory effects over the current kinetics and voltage dependence of activation were compared.
as §2, §3, §4, §5

human Nav1.2 [2] = biological target: T1, human Nav1.2; assay: Automated patch-clamp, concentration-response and inactivation fits, Nav1.2 in HEK293; conditions: for Nav1.2 yinf: single exponential fit
Protocol: Functional modulation of recombinant human voltage-gated sodium (Nav) channels exposed to marine PbTx-3 and brevenal was assessed by automated patch-clamp electrophysiology. Neuronal Nav1.2 (CNS) and Nav1.7 (PNS), in addition to muscle Nav1.4 (skeletal) and Nav1.5 (cardiac) sodium channels, were patch-clamped in mammalian cells. Whole-cell currents mediated by human Nav1.4 and Nav1.7 overexpressed in CHO-K1 cells, as well as human Nav1.2 and Nav1.5 overexpressed in HEK293 cells, were recorded at room temperature. Currents were elicited by 25 ms test pulses to −20 mV from a holding potential (Vh) of −120 mV, delivered for 5 min at 0.1 Hz, after each full-bath solution exchange to allow current amplitude and kinetics to reach a steady state.
Current traces were scaled to maximal Ipeak and are presented as insets in Figure 2 to underline the effects (or lack thereof) of PbTx-3 and brevenal on the current kinetics of the four Nav isoforms studied. Inactivation time constants (τinact) in control and the presence of PbTx-3 and brevenal were estimated by exponential fits (see Methods) to the current decay between 15% and 85% of the depolarizing pulse. Single exponential fits adequately described τinact for the neuronal and the skeletal muscle Nav isoforms, whereas a double exponential fit was required to approximate open channel inactivation of the cardiac Nav current. Consistent with the enhancement of Ilate observed for Nav1.2, Nav1.4, and Nav1.5 in the presence of PbTx-3, significant concentration-dependent increases in the Yinf asymptote were detected (Tables S1–S3). These were mirrored by brevenal exposure in Nav1.2- and Nav1.4-mediated currents. Nevertheless, the estimated τinacts appeared insensitive to PbTx-3 and brevenal modification, with the notable exception of Nav1.4, for which high concentrations of PbTx-3 and brevenal caused a measurable slowing of the open channel inactivation time constant (Table S2).
as §3
HEK293 cells heterologously expressing human Nav1.2 (Scottish Biomedical, a kind gift from the Petrous lab, Florey Institute of Neuroscience and Mental Health, Melbourne, VIC Australia) and Nav1.5 (ChanTest Corp., Cleveland, OH, USA) were cultured in DMEM containing 10% v/v FBS and selection antibiotics to enable stable expression as per the manufacturer’s recommendation. CHOK1 expressing Nav1.4 and Nav1.7 (ChanTest) was cultured in DMEM/F12 containing 10% v/v FBS and selection antibiotics supporting stable expression as recommended by the manufacturer. Cells were maintained in a humidified 5% CO2 incubator at 37 °C, grown in T25 flasks to 70–80% confluence, and passaged every 3–4 days using TrypLE Express (Invitrogen). After harvesting with TrypLE, cells were resuspended to 10^5 cells/mL in cold extracellular solution and allowed to recover for 30 min at 4 °C before recording.
as §4
Cells between passages 6 and 12 were used. […]

human Nav1.7 = human Nav1.7 (Homo sapiens, UniProt Q15858); assay: Automated patch-clamp I-V relationship (voltage dependence of activation, Gmax), Nav1.7
Chain of human Nav1.7 (Q15858 whole entry): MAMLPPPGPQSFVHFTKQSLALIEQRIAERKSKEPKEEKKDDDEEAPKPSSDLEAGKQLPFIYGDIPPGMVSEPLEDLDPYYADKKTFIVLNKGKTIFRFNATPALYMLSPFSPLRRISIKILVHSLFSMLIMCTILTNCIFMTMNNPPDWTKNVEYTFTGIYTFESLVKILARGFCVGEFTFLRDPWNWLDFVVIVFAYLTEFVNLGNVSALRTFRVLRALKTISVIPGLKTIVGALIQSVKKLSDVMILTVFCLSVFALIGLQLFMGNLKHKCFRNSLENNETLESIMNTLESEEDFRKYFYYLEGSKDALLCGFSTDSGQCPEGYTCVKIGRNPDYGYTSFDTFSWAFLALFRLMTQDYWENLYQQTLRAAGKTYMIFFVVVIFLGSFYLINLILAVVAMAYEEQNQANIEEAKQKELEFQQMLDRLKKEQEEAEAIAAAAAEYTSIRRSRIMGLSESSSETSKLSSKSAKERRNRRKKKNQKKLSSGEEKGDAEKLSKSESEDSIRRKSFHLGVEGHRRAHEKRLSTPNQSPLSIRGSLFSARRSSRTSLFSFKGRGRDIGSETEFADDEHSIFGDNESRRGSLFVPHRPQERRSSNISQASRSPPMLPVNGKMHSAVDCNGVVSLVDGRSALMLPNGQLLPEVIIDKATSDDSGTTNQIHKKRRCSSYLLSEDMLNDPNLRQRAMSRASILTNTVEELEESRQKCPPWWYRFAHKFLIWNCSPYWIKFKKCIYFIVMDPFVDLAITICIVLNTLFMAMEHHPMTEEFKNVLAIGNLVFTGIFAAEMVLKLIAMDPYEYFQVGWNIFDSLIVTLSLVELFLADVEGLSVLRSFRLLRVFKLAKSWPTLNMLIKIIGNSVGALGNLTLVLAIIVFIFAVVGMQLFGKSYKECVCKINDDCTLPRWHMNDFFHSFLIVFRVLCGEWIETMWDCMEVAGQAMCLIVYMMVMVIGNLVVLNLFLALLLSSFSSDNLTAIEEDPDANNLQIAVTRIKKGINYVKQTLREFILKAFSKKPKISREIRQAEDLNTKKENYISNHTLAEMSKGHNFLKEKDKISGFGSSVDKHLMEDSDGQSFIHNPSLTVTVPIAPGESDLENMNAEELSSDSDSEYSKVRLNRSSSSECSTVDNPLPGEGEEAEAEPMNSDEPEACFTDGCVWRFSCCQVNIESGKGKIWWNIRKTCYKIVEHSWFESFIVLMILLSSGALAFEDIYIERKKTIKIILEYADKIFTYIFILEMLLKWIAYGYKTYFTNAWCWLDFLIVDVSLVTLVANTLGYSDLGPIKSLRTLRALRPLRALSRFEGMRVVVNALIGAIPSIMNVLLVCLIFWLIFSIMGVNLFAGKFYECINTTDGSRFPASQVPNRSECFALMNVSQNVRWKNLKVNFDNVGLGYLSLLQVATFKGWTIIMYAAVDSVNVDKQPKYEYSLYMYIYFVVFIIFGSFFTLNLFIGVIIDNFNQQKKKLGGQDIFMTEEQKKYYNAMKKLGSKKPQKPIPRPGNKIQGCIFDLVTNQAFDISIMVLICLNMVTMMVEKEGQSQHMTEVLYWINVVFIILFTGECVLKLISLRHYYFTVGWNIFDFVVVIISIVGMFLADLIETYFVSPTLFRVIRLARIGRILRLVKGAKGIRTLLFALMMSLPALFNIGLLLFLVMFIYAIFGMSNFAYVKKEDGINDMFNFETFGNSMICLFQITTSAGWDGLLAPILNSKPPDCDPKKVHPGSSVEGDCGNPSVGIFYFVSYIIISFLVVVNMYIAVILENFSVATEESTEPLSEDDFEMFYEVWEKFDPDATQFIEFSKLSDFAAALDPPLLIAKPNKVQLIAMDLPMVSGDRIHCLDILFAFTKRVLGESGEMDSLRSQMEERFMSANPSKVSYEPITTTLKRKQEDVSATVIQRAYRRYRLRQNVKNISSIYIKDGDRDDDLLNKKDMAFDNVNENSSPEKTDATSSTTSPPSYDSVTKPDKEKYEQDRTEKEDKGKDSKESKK
Protocol: as §1, §6, §2, §3, §4, §5

[3] = extracellular brevenal 10 μM, n = 5

## C=C/C=C\CC[C@H]1O[C@H]2CC[C@@]3(C)O[C@H]4[C@@H](O)C[C@@]5(C)O[C@@H](CC/C=C(C)/C(C)=C/C=O)[C@@H](C)C[C@H]5O[C@@H]4C[C@@H]3O[C@@H]2CC[C@@]1(C)O [Brevenal]
Human Nav1.4; Brevenalo 1 μM
  inhibition of Nav1.4 Gmax: ~ 70%
Human Nav1.4; Brevenalo 1 μM, n = 7
  Gmax^Rel of Nav1.4: 0.3 ± 0.02
  depolarizing shift in V0.5 of Nav1.4: 4.9 ± 1.1 mV
Human Nav1.4; Ctro:Brevenali, n = 4, control −31.8 ± 0.5 mV
  Nav1.4 V0.5: −26.4 ± 2.8 mV
Human Nav1.4; brevenal 1 μM in the intracellular solution
  right shift of Nav1.4 activation vs control intracellular: ~ 5 mV
Human Nav1.2 [1]; Ctro:Brevenali, intracellular brevenal 1 μM, n = 4, control −22.6 ± 1.9 mV
  Nav1.2 V0.5: −43.9 ± 2.3 mV
Human Nav1.2 [1]; extracellular brevenal 10 μM
  decrease in Nav1.2 Gmax: ~ 40%
Human Nav1.2 [1]; [3]
  Gmax^Rel of Nav1.2: 0.6 ± 0.1
  ΔV0.5 of Nav1.2 activation (depolarizing shift): 6.1 ± 1.0 mV
Human Nav1.2 [1]; intracellular dialysis with brevenal 1 μM
  leftward shift in Nav1.2 V0.5 vs control intracellular: ~ 20 mV
Human Nav1.2 [2]; 10^-5 M, n = 4
  Nav1.2 τ inact: 0.75 ± 0.10 ms
  Nav1.2 yinf: 0.12±0.06
Human Nav1.2 [2]; 10^-6 M, n = 4
  Nav1.2 τ inact: 0.65 ± 0.08 ms
  Nav1.2 yinf: 0.10±0.07
Human Nav1.2 [2]; 10^-9 M, n = 4
  Nav1.2 τ inact: 0.74 ± 0.8 ms
  Nav1.2 yinf: 0.08±0.04
Human Nav1.2 [2]; inhibition of peak current, −20 mV, Vh −120 mV, n = 5, read-out: Nav1.2 Ipeak EC50
  pEC50: 7.74
Human Nav1.2 [2]; test pulse −20 mV, Vh −120 mV, extracellular, n = 5
  Nav1.2 Ipeak FC^Max (maximal fold change): 0.6 ± 0.1
Human Nav1.7; Brevenali-occupied channels (intracellular 1 μM), n = 4, control −20.0 ± 2.4 mV
  Nav1.7 V0.5: −16.6 ± 1.7 mV
Human Nav1.7; Brevenalo 10 μM
  decrease in Nav1.7 Gmax: ~ 10%
Human Nav1.7; Brevenalo 10 μM, n = 5
  Gmax^Rel of Nav1.7: 0.9 ± 0.1
Human Nav1.7; Brevenalo 10 μM, n = 6
  shift in V0.5 of Nav1.7: −4.5 ± 0.4 mV

## C=C(CO)C[C@@H]1C[C@H](O)[C@]2(C)OC3CC4OC5C[C@]6(C)O[C@]7(C)CCC8OC9C[C@]%10(C)OC%11C(C)=CC(=O)OC%11CC%10OC9C[C@@H](C)C8OC7CC6O[C@@]5(C)C/C=C\C4OC3CC2O1 (stereo partly drawn) [PbTx-3, Brevetoxin PbTx-3]
Human Nav1.4
  Gmax^Rel of Nav1.4: 0.3 ± 0.05 and 0.4 ± 0.1
  hyperpolarizing shift in V0.5 of Nav1.4: 9.2 ± 1.5 mV
  inhibition of Nav1.4 Gmax: ~ 70%
  inhibition of Nav1.4 Ipeak: completely inhibited
  ΔV0.5 of Nav1.4 activation: 3.1 ± 2.6 mV
Human Nav1.2 [1]
  Gmax^Rel of Nav1.2: 0.9 ± 0.1
  Nav1.2 Ilate as % of Ipeak: ~ 40%
  ΔV0.5 of Nav1.2 activation: 1.5 ± 1.0 mV
Human Nav1.2 [2]
  Nav1.2 Ilate FC^Max (maximal fold change): 3.0 ± 0.1
  Nav1.2 τ inact: 0.88 ± 0.1 ms and 0.76 ± 0.05 ms and 0.64 ± 0.14 ms
Human Nav1.2 [2]; read-out: Nav1.2 Ilate EC50
  pEC50: 11.28
Human Nav1.7
  decrease in Nav1.7 maximal conductance: ~ 70%
  leftward shift in activation ΔV0.5 of Nav1.7: 6.8 ± 0.7 mV
  shift in the voltage dependence of activation of Nav1.7: −10.0 ± 0.6 mV
